Data taken from patent publication US9999222B2, “Herbicidal combination comprising azines” (BASF SE, priority 2014, dated 2018).
Several values for one entry are separate records, joined by “and”; a condition that tells them apart may be missing. Equal values may be shown once. Read-outs that look alike come from different tables or passages of the source.

What was measured:
Experiment in all cases: Greenhouse test, pre-emergence treatment
POLCO = type: in vivo, Polygonum convolvulus; conditions: Fallopia convolvulus, pre-emergence, 480 h, pre-emergence
How it was run: (§1)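 Seeds were sown in loamy sand with about 3.0% humus, and compounds in water were sprayed immediately after sowing, alone or as combinations formulated as 10% emulsion concentrates. Plants grew under hoods until rooted, at 10-25 °C or 20-35 °C by species, for 2 to 4 weeks. Damage was scored 0-100 (100 = no emergence or complete destruction), and Colby expected values were E=X+Y−(X·Y/100).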

AVEFA = type: in vivo, Avena fatua; conditions: for inhibition at 125 g/ha / inhibition at 250 g/ha: Avena fatua, 480 h; for inhibition at 125 g/ha: 125 g ai/ha
How it was run: as §1

COMBE = type: in vivo, Commelina benghalensis; conditions: Commelina benghalensis, pre-emergence, 480 h, pre-emergence, 250 g ai/ha; read-out: observed % activity 20 DAT
How it was run: as §1

SORHA = type: in vivo, Sorghum halepense; conditions: Sorghum halepense, pre-emergence, 480 h; 250 g ai/ha, 20 DAT; read-out: observed % activity
LOLMU = type: in vivo, Lolium multiflorum; conditions: pre-emergence
How it was run: as §1

ECHCG = type: in vivo, Echinocloa crus-galli; conditions: Echinochloa crus-galli, 480 h, read-out: observed % activity 20 DAT
How it was run: as §1

BRADC = type: in vivo, Brachiaria decumbens
How it was run: as §1

GALAP = type: in vivo, Galium aparine; conditions: Galium aparine, pre-emergence, 480 h; for inhibition at 125 g/ha: 125 g ai/ha
How it was run: as §1

KCHSC = type: in vivo, Kochia scoparia; conditions: Bassia scoparia, pre-emergence, 480 h, pre-emergence, 125 g ai/ha; read-out: observed % activity 20 DAT
How it was run: as §1

EPHHL = type: in vivo, Euphorbia heterophylla; conditions: Euphorbia heterophylla, pre-emergence, 480 h, pre-emergence, 250 g ai/ha; read-out: observed % activity 20 DAT
How it was run: as §1

ALOMY = type: in vivo, Alopecurus myosuroides
How it was run: as §1

IPOHE = type: in vivo, Ipomoea hederacea; conditions: Ipomoea hederacea, 480 h, 250 g ai/ha, read-out: observed % activity 20 DAT
How it was run: as §1

PHACA = type: in vivo, Phalaris canariensis; conditions: for inhibition at 250 g/ha: 250 g ai/ha
How it was run: as §1

[1] = 62, 5 g ai/ha, 20 DAT, read-out: observed % activity

CSc1nnc(C(C)(C)C)c(=O)n1N [metribuzin]
inhibition at 125 g/ha (POLCO; 125 g ai/ha, read-out: observed % activity 20 DAT): 20% | inhibition at 250 g/ha (POLCO; 250 g ai/ha, read-out: observed % activity 20 DAT): 20% | pest or weed control at 62.5 g/ha (POLCO; [1]): 0% | observed % activity (AVEFA; 62, 5 g ai/ha, 20 DAT): 0% | inhibition at 125 g/ha (AVEFA; pre-emergence, 20 DAT, read-out: observed % activity): 10% | inhibition at 250 g/ha (AVEFA; pre-emergence, 250 g ai/ha, 20 DAT, read-out: observed % activity): 55% | inhibition at 125 g/ha (AVEFA; pre-emergence, pre-emergence, read-out: observed % activity 20 DAT): 80% | inhibition at 250 g/ha (AVEFA; pre-emergence, pre-emergence, 250 g ai/ha, read-out: observed % activity 20 DAT): 70% | observed % activity 20 DAT (AVEFA; pre-emergence, 250 g ai/ha): 65% | inhibition at 250 g/ha (COMBE): 90% | inhibition at 250 g/ha (SORHA): 45% | inhibition at 125 g/ha (LOLMU; Lolium multiflorum, 480 h, 125 g ai/ha, 20 DAT, read-out: observed % activity): 60% | inhibition at 250 g/ha (LOLMU; Lolium multiflorum, 480 h, 250 g ai/ha, 20 DAT, read-out: observed % activity): 90% | inhibition at 62.5 g/ha (LOLMU; Lolium multiflorum, 480 h, 62.5 g ai/ha, read-out: observed % activity 20 DAT): 0% | inhibition at 125 g/ha (LOLMU; Lolium multiflorum, 480 h, 125 g ai/ha, read-out: observed % activity 20 DAT): 55% | observed % activity 20 DAT (LOLMU; 125 g ai/ha): 65% | observed % activity 20 DAT (LOLMU; 250 g ai/ha): 45% and 75% | inhibition at 125 g/ha (ECHCG; 125 g ai/ha): 80% | inhibition at 250 g/ha (ECHCG; 250 g ai/ha): 95% | observed % activity (BRADC; 62, 5 g ai/ha, 20 DAT): 50% | inhibition at 62.5 g/ha (BRADC; Urochloa decumbens, pre-emergence, 480 h, pre-emergence, 62.5 g ai/ha, read-out: observed % activity 20 DAT): 45% | observed % activity 20 DAT (BRADC; pre-emergence, 250 g ai/ha): 40% | inhibition at 125 g/ha (GALAP; 20 DAT, read-out: observed % activity): 30% | inhibition at 250 g/ha (GALAP; 250 g ai/ha, 20 DAT, read-out: observed % activity): 30% | inhibition at 125 g/ha (GALAP; read-out: observed % activity 20 DAT): 20% | pest or weed control at 62.5 g/ha (GALAP; [1]): 30% | inhibition at 125 g/ha (KCHSC): 95% | inhibition at 250 g/ha (EPHHL): 85% | observed % activity (ALOMY; 62, 5 g ai/ha, 20 DAT): 35% | inhibition at 250 g/ha (ALOMY; Alopecurus myosuroides, pre-emergence, 480 h, 250 g ai/ha, 20 DAT, read-out: observed % activity): 98% | inhibition at 62.5 g/ha (ALOMY; Alopecurus myosuroides, pre-emergence, 480 h, pre-emergence, 62.5 g ai/ha, read-out: observed % activity 20 DAT): 0% | inhibition at 125 g/ha (ALOMY; Alopecurus myosuroides, pre-emergence, 480 h, pre-emergence, 125 g ai/ha, read-out: observed % activity 20 DAT): 80% | inhibition at 250 g/ha (ALOMY; Alopecurus myosuroides, pre-emergence, 480 h, pre-emergence, 250 g ai/ha, read-out: observed % activity 20 DAT): 90% | observed % activity 20 DAT (ALOMY; pre-emergence, 250 g ai/ha): 75% | inhibition at 250 g/ha (IPOHE): 20% | observed % activity (PHACA; 62, 5 g ai/ha, 20 DAT): 30% | inhibition at 125 g/ha (PHACA; Phalaris canariensis, pre-emergence, 480 h, 125 g ai/ha, 20 DAT, read-out: observed % activity): 70% | inhibition at 250 g/ha (PHACA; Phalaris canariensis, pre-emergence, 480 h, 20 DAT, read-out: observed % activity): 90% | inhibition at 62.5 g/ha (PHACA; Phalaris canariensis, pre-emergence, 480 h, pre-emergence, 62.5 g ai/ha, read-out: observed % activity 20 DAT): 15% | inhibition at 125 g/ha (PHACA; Phalaris canariensis, pre-emergence, 480 h, pre-emergence, 125 g ai/ha, read-out: observed % activity 20 DAT): 65% | inhibition at 250 g/ha (PHACA; Phalaris canariensis, pre-emergence, 480 h, pre-emergence, read-out: observed % activity 20 DAT): 95% | observed % activity 20 DAT (PHACA; pre-emergence, 125 g ai/ha): 75%
